“Also recorded” adds a separate entry of the source.

Data set [1] addresses T1, human δ opioid receptor (Homo sapiens, UniProt P41143). The settings on record: mean ± SEM; cited from earlier work.
The target of data set [2] is T1, human δ opioid receptor. As to the kind of experiment: biochemical.
The conditions of data set [3]: rat PK studies.
The target in a further data set is human κ opioid receptor (Homo sapiens, UniProt P41145). The settings on record: mean ± SEM; cited from earlier work.
human κ opioid receptor, sequence (P41145 whole entry): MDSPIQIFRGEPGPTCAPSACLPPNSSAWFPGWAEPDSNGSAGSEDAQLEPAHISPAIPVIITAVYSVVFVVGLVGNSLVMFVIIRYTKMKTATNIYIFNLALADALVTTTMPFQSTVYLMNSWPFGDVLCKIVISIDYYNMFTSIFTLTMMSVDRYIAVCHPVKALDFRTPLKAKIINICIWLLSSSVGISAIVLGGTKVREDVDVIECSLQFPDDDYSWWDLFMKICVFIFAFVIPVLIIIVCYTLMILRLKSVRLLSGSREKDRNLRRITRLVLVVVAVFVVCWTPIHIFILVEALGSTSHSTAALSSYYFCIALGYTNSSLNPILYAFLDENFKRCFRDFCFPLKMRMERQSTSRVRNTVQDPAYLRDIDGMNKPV

T1 sequence (P41143 whole entry): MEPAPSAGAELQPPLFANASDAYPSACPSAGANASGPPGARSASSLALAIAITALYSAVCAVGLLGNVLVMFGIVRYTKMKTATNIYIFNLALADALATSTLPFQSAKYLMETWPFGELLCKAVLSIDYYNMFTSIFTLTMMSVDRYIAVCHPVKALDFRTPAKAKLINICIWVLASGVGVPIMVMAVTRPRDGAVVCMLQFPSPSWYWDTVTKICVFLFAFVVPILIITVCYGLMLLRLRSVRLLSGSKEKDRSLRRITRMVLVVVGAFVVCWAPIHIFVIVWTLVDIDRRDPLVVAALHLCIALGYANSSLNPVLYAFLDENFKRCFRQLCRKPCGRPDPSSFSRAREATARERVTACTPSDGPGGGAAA

As for `CC1CCN(C[C@@H](NC(=O)[C@H]2Cc3ccc(O)cc3CN2)C(C)C)CC1` [4-MePDTic (43)], the “Ke δ, DPDPE” value on human δ opioid receptor [1] was greater than 3000 nM.

In the case of `CC(C)[C@@H](CC1CCCCC1)NC(=O)[C@H]1Cc2ccc(O)cc2CN1` [Compound 1], the “Ke δ, DPDPE” value at human δ opioid receptor [1] is given as 640 ± 170 nM.

As to `CC(C)[C@@H](CC1CCCCC1)NC(=O)[C@@H]1Cc2ccc(O)cc2CN1` [Compound 3, (3S)-N-[(1R)-1-(Cyclohexylmethyl)-2-methylpropyl]-7-hy-droxy-1,2,3,4-tetrahydroisoquinoline-3-carboxamide], on human δ opioid receptor [2], the Kb is greater than 3 µM.

Regarding `CC(C)[C@H](CC1CCCCC1)NC(=O)[C@H]1Cc2ccc(O)cc2CN1` [Compound 4, (3R)-N-[(1S)-1-(Cyclohexylmethyl)-2-methylpropyl]-7-hydroxy-1,2,3,4-tetrahydroisoquinoline-3-carboxamide], on human δ opioid receptor [2], the Kb is greater than 3 µM.

As to `CC(C)[C@H](CC1CCCCC1)NC(=O)[C@@H]1Cc2ccc(O)cc2CN1` [Compound 5, (3S)-N-[(1S)-1-(Cyclohexylmethyl)-2-methylpropyl]-7-hydroxy-1,2,3,4-tetrahydroisoquinoline-3-carboxamide], the Kb on human δ opioid receptor [2] was greater than 3 µM.

For `CC(C)[C@@H](CC1CCCCC1)NC(=O)[C@H]1Cc2ccc(C(N)=O)cc2CN1` [Compound 9, (3R)-N^3-[(1R)-1-(Cyclohexylmethyl)-2-methylpropyl]-1,2,3,4-tetrahydroisoquinoline-3,7-dicarboxamide], the brain penetration entry in data set [3] is “brain penetration”.

For `CC(C)[C@@H](CC1CCCC1)NC(=O)[C@H]1Cc2ccc(O)cc2CN1` [Compound 13, (3R)-N-[(1R)-1-(Cyclopentylmethyl)-2-methylpropyl]-7-hydroxy-1,2,3,4-tetrahydroisoquinoline-3-carboxamide], in data set [3], the brain penetration entry was “brain penetration; also recorded: crossed the blood–brain barrier; also recorded: penetrate the brain”.

On to `CC(C)[C@@H](CN1CCCCC1)NC(=O)[C@H]1Cc2ccc(O)cc2CN1` [Compound 42, (3R)-7-hydroxy-N-[(1S)-2-methyl-1-(piperidin-1-ylmethyl)propyl]-1,2,3,4-tetrahydroisoquinoline-3-carboxamide], for which, at human δ opioid receptor [1], the “Ke δ, DPDPE” value is on record as greater than 3000 nM.

`CC(C)[C@@H](CN1CC[C@@](C)(c2cccc(O)c2)[C@@H](C)C1)NC(=O)[C@H]1Cc2ccc(O)cc2CN1` [JDTic, (3R)-1,2,3,4-tetrahydro-7-hydroxy-N-[(1S)-1-[[(3R,4R)-4-(3-hydroxy-phenyl)-3,4-dimethyl-1-piperidinyl]methyl]-2-methylpropyl]-3-iso-quinolinecarboxamide]: at human κ opioid receptor, the “Ke κ, U69,593” value was 0.02 ± 0.01 nM.
